This note sets out measurements from ChEMBL document CHEMBL5120904, “Zelkovamycins F and G, Cyclopeptides with Cα-Methyl-threonine Residues, from an Endophytic Kitasatospora sp” (J Nat Prod, 2022).

pEC50: −log10 of the molar value. Converted amounts (≈) assume the structure as drawn. *1 amine or outer side, *2 acyl side, *3 side chain or, on linkers, in order; H or OH if unused. Where a SMILES comes first, the peptide text is derived from it. [ ]: non-standard residue; d: D form. dAla(ψthiazole) = C[C@@H](N[*:1])c1nc(C(=O)[*:2])cs1; Trp(4-OMe) = COc1cccc2[nH]cc(C[C@H](N)C(=O)O)c12; X1 = CC(=O)[C@](C)(N[*:1])C(=O)[*:2]; Dhb = C/C=C(\N)C(=O)O; Sar = CNCC(=O)O

Data set [1] can be described thus: Selectivity index, ratio of CC50 for human Huh7.5 cells to EC50 for antiviral activity against HCV infected in human Huh7.5 cells. Type of data set: toxicity, cell-based. The following applies: read-out: Ratio CC50/EC50.
A short description of data set [2]: Cytotoxicity against human Huh7.5 cells. In kind it is toxicity, cell-based, Huh-7.5.
The subject of data set [3] is Hepatitis C virus. As to the kind of experiment: Antiviral activity against HCV infected in human Huh7.5 cells assessed as reduction in viral RNA level measured after 72 hrs by RT-PCR analysis. As to conditions: Huh7.5, 72 h. In kind it is functional, organism-based, Hepacivirus hominis.
In data set [4] the test system is Escherichia coli. As to the kind of experiment: Antibacterial activity against Escherichia coli measured after 24 hrs by broth microdilution method. In kind it is functional. Background: Dilution methods test growth across graded concentrations, often in twofold steps.
The subject of data set [5] is Bacillus subtilis. The data set can be described thus: Antibacterial activity against Bacillus subtilis ATCC6633 measured after 24 hrs by broth microdilution method. In kind it is functional.
Data set [6] has as its system Morganella morganii. The data set can be described thus: Antibacterial activity against multidrug-resistant Morganella morganii KL-225 measured after 24 hrs by broth microdilution method. Type of data set: functional.
The subject of data set [7] is Staphylococcus aureus. As to the kind of experiment: Antibacterial activity against methicillin-resistant Staphylococcus aureus ATCC33591 measured after 24 hrs by broth microdilution method. In kind it is functional.
Data set [8] concerns Staphylococcus aureus. As to the kind of experiment: Antibacterial activity against methicillin-resistant Staphylococcus aureus R6101 measured after 24 hrs by broth microdilution method. Type of data set: functional.
The subject of data set [9] is Klebsiella pneumoniae. The data set can be described thus: Antibacterial activity against Klebsiella pneumoniae ATCC700603 measured after 24 hrs by broth microdilution method. In kind it is functional.
For data set [10], the system named is Pseudomonas aeruginosa. As to the kind of experiment: Antibacterial activity against Pseudomonas aeruginosa ATCC27853 measured after 24 hrs by broth microdilution method. In kind it is functional.
For data set [11], the system named is Staphylococcus epidermidis. The data set can be described thus: Antibacterial activity against Staphylococcus epidermidis ATCC12228 measured after 24 hrs by broth microdilution method. Type of data set: functional.
The test system of data set [12] is Staphylococcus aureus. The data set can be described thus: Antibacterial activity against methicillin-sensitive Staphylococcus aureus ATCC29213 measured after 24 hrs by broth microdilution method. Type of data set: functional.
Data set [13] relates to Morganella morganii. As to the kind of experiment: Antibacterial activity against beta-lactamase-producing Morganella morganii ATCC25830 measured after 24 hrs by broth microdilution method. Type of data set: functional.
Data set [14] has as its system Influenza A virus. As to the kind of experiment: Antiviral activity against Influenza A virus A/WSN/33(H1N1) infected in HEK293T cells pretreated for 2 hrs followed by viral infection and measured after 24 hrs by Gaussia luciferase assay. As to conditions: HEK-293T. Type of data set: functional, organism-based.

As for `CC(C)OC(=O)[C@H](C)N[P@@](=O)(OC[C@H]1O[C@@H](n2ccc(=O)[nH]c2=O)[C@](C)(F)[C@@H]1O)Oc1ccccc1`, in data set [1], the selectivity ratio is greater than 3330. This molecule showed a CC50 in data set [2] greater than 200 µM. Moreover, the pEC50 in data set [3] was 7.22.

Turning to `C/C=C1\NC(=O)[C@@H](C)NC(=O)CNC(=O)[C@@H](CC)NC(=O)[C@H](Cc2c[nH]c3cccc(OC)c23)NC(=O)c2csc(n2)[C@@H](C)NC(=O)CN(C)C1=O`, the minimal inhibitory concentration (MIC) in data set [4], in [5], in [6], in data set [7], in [8] and in data set [9] was greater than 160 µg/mL each time. The MIC in data set [10], in data set [11], in [12] and in data set [13] was greater than 160 µg/mL throughout. Besides, the pEC50 in data set [14] was less than 4.30.

On to `C/C=C1\NC(=O)[C@@H](CC)NC(=O)CNC(=O)[C@](C)(C(C)=O)NC(=O)[C@H](Cc2c[nH]c3cccc(OC)c23)NC(=O)c2csc(n2)[C@@H](C)NC(=O)CN(C)C1=O`, for which the MIC was greater than 160 µg/mL in data set [4]; greater than 160 µg/mL in data set [5]; 20 µg/mL (≈ 25.6 µM) in data set [6]; 0.31 µg/mL (≈ 0.397 µM) in data set [7]; 10 µg/mL (≈ 12.8 µM) in data set [8]; greater than 160 µg/mL in data set [9]. Further, the MIC in data set [10] is greater than 160 µg/mL; in data set [11], 2.5 µg/mL (≈ 3.21 µM); in [12], 2.5 µg/mL (≈ 3.21 µM); in [13] it was 20 µg/mL (≈ 25.6 µM). In addition, the selectivity ratio in [1] is greater than 17.7. The molecule also displayed a CC50 in data set [2] greater than 111 µM. Besides, the negative logarithm of the EC50 (pEC50) in [3] is 5.20.

As for `C/C=C1\NC(=O)[C@@H](CC)NC(=O)CNC(=O)[C@](C)([C@@H](C)O)NC(=O)[C@H](Cc2c[nH]c3cccc(OC)c23)NC(=O)c2csc(n2)[C@@H](C)NC(=O)CN(C)C1=O`, the MIC in [4] is greater than 160 µg/mL; in data set [5], greater than 160 µg/mL; in data set [6], greater than 160 µg/mL; in data set [7], 1.25 µg/mL (≈ 1.6 µM); in data set [8], 40 µg/mL (≈ 51.2 µM); in [9], greater than 160 µg/mL. Also, the MIC in data set [10] was greater than 160 µg/mL; in data set [11], 0.62 µg/mL (≈ 0.793 µM); in [12] it was 10 µg/mL (≈ 12.8 µM); in data set [13] it was 160 µg/mL (≈ 205 µM). For the same molecule, the pEC50 in data set [14] is less than 4.30.

With `C/C=C1\NC(=O)[C@@H](CC)NC(=O)CNC(=O)[C@](C)([C@H](C)O)NC(=O)[C@H](Cc2c[nH]c3cccc(OC)c23)NC(=O)c2csc(n2)[C@@H](C)NC(=O)CN(C)C1=O`, the MIC was greater than 160 µg/mL in data set [4]; greater than 160 µg/mL in [5]; 160 µg/mL (≈ 205 µM) in data set [6]; 2.5 µg/mL (≈ 3.2 µM) in data set [7]; 40 µg/mL (≈ 51.2 µM) in [8]; greater than 160 µg/mL in data set [9]. Moreover, the minimal inhibitory concentration (MIC) in data set [10] was greater than 160 µg/mL; in data set [11], 1.25 µg/mL (≈ 1.6 µM); in data set [12] it was 20 µg/mL (≈ 25.6 µM); in data set [13], 80 µg/mL (≈ 102 µM). Besides, the selectivity ratio in data set [1] is greater than 2. Further, in data set [2], the CC50 is greater than 200 µM. For the same molecule, the results for the pEC50 in data set [14] and in data set [3] were less than 4.30 and 4.01, respectively.

For `C/C=C1\NC(=O)[C@@H](C)NC(=O)CNC(=O)[C@](C)(C(C)=O)NC(=O)[C@H](Cc2c[nH]c3cccc(OC)c23)NC(=O)c2csc(n2)[C@@H](C)NC(=O)CNC1=O`, the MIC in [4], in data set [5], in [6], in data set [7], in [8] and in data set [9] was greater than 160 µg/mL each time. In addition, the minimum inhibitory concentration (MIC) in data set [10], in data set [11], in data set [12] and in [13] was greater than 160 µg/mL throughout. Besides, the selectivity ratio in data set [1] is greater than 4.3. This molecule came in with a CC50 in data set [2] greater than 200 µM. For the same molecule, the pEC50 in [14] was less than 4.30; in [3] it was 4.33.

`C/C=C1\NC(=O)[C@@H](CC)NC(=O)CNC(=O)[C@](C)(C(C)=O)NC(=O)[C@H](Cc2c[nH]c3cccc(OC)c23)NC(=O)c2csc(n2)[C@@H](C)NC(=O)CNC1=O`: the MIC was greater than 160 µg/mL in data set [4]; greater than 160 µg/mL in data set [5]; greater than 160 µg/mL in data set [6]; 160 µg/mL (≈ 209 µM) in [7]; greater than 160 µg/mL in data set [8]; greater than 160 µg/mL in [9]. Moreover, the MIC in [10] is greater than 160 µg/mL; in data set [11], 160 µg/mL (≈ 209 µM); in [12], greater than 160 µg/mL; in data set [13] it was greater than 160 µg/mL. The selectivity ratio in data set [1] was greater than 1.1. In addition, in [2], the CC50 is greater than 106 µM. In addition, the pEC50 is less than 4.30 in data set [14] and 4.01 in data set [3].

Take `C=C1NC(=O)[C@@H](CC)NC(=O)CNC(=O)[C@](C)(C(C)=O)NC(=O)[C@H](Cc2c[nH]c3cccc(OC)c23)NC(=O)c2csc(n2)[C@@H](C)NC(=O)CN(C)C1=O`: the MIC in [4] was greater than 160 µg/mL; in data set [5] it was greater than 160 µg/mL; in [6], 40 µg/mL (≈ 52.2 µM); in [7], 1.25 µg/mL (≈ 1.63 µM); in data set [8], 40 µg/mL (≈ 52.2 µM); in data set [9] it was greater than 160 µg/mL. In addition, the MIC in data set [10] is greater than 160 µg/mL; in data set [11], 5 µg/mL (≈ 6.53 µM); in data set [12] it was 10 µg/mL (≈ 13.1 µM); in data set [13] it was 40 µg/mL (≈ 52.2 µM). Further, in [14], the pEC50 was less than 4.30.

Consider `C/C=C1\NC(=O)[C@@H](C)NC(=O)CNC(=O)[C@](C)(C(C)=O)NC(=O)[C@H](Cc2c[nH]c3cccc(OC)c23)NC(=O)c2csc(n2)[C@@H](C)NC(=O)CN(C)C1=O` (cyclo([Dhb][Sar][dAla(ψthiazole)][Trp(4-OMe)][X1]G[dA])), for which the selectivity ratio in data set [1] was greater than 16.6. Also, the CC50 in data set [2] was greater than 36.5 µM. The pEC50 in [3] is 5.66.

Consider `C[C@H]1COc2c(N3CCN(C)CC3)c(F)cc3c(=O)c(C(=O)O)cn1c23.C[C@H]1COc2c(N3CCN(C)CC3)c(F)cc3c(=O)c(C(=O)O)cn1c23.O` [LEVOFLOXACIN], for which the MIC is less than 0.078 µg/mL in data set [5]; 5 µg/mL in data set [6]; 0.078 µg/mL in [7]; 5 µg/mL in data set [8]; 0.16 µg/mL in data set [11]; 0.078 µg/mL in data set [12]. The same molecule had an MIC in data set [13] of less than 0.078 µg/mL.

For the molecule `Cc1onc(-c2ccccc2)c1C(=O)N[C@@H]1C(=O)N2[C@@H]1SC(C)(C)[C@@H]2C(=O)O` [OXACILLIN], the minimum inhibitory concentration (MIC) is less than 0.078 µg/mL in data set [5]; greater than 160 µg/mL in [6]; 80 µg/mL (≈ 199 µM) in [7]; greater than 160 µg/mL in data set [8]; 0.16 µg/mL (≈ 0.399 µM) in [11]; 0.078 µg/mL (≈ 0.194 µM) in data set [12]. Besides, the MIC in [13] stood at 40 µg/mL (≈ 99.6 µM).

On to `CO[C@H]1/C=C/O[C@@]2(C)Oc3c(C)c(O)c4c(O)c(c(/C=N/N5CCN(C)CC5)c(O)c4c3C2=O)NC(=O)/C(C)=C\C=C\[C@H](C)[C@H](O)[C@@H](C)[C@@H](O)[C@@H](C)[C@H](OC(C)=O)[C@@H]1C` [RIFAMPIN], for which the MIC in data set [5] was less than 0.078 µg/mL; in data set [6], 10 µg/mL (≈ 12.2 µM); in [7], less than 0.078 µg/mL; in data set [8], 10 µg/mL (≈ 12.2 µM); in data set [11] it was less than 0.078 µg/mL; in data set [12], less than 0.078 µg/mL. In addition, the lowest concentration to inhibit growth in data set [13] (MIC) was 10 µg/mL (≈ 12.2 µM).

Turning to `CN[C@H](CC(C)C)C(=O)N[C@H]1C(=O)N[C@@H](CC(N)=O)C(=O)N[C@H]2C(=O)N[C@H]3C(=O)N[C@H](C(=O)N[C@H](C(=O)O)c4cc(O)cc(O)c4-c4cc3ccc4O)[C@H](O)c3ccc(c(Cl)c3)Oc3cc2cc(c3O[C@@H]2O[C@H](CO)[C@@H](O)[C@H](O)[C@H]2O[C@H]2C[C@](C)(N)[C@H](O)[C@H](C)O2)Oc2ccc(cc2Cl)[C@H]1O` [VANCOMYCIN], the MIC is less than 0.078 µg/mL in data set [5]; greater than 160 µg/mL in [6]; 0.62 µg/mL (≈ 0.428 µM) in [7]; greater than 160 µg/mL in [8]; 1.25 µg/mL (≈ 0.863 µM) in data set [11]; 1.25 µg/mL (≈ 0.863 µM) in [12]. Moreover, in data set [13], the MIC was greater than 160 µg/mL.

Usually CC50 stands for the concentration giving 50% cytotoxicity. Lower therefore signals harm at low concentration. For orientation: pEC50 means −log10 of the EC50, conventionally taken in molar units. As usually defined, the MIC is the lowest concentration that inhibits growth of the organism. Read a high MIC as weaker potency.
